Measured values as given in patent publication US8487072B2, “Compounds for stimulating P-glycoprotein function and uses thereof” (Angiochem Inc., priority 2006, dated 2013).
Like-named read-outs stand apart in the source and are kept apart here.

Columns and labels:
P-gp [1] = assay: Brain uptake of [3H]-Taxol in vivo (P-gp efflux transport at the blood brain barrier); parameters: species or system mice; settings: peptide 20 μg/ml; for reduction of [3H]-Taxol in the capillaries and in the parenchyma relative to total brain: [3H]-Taxol perfused 5 minutes; for reduction of Taxol passage in the total brain vs control mice: [3H]-Taxol perfused through right jugular vein for 5 minutes, total brain (FIG. 2)
Protocol: The effect of compounds on P-gp efflux transport activity was investigated in vivo. For this purpose, the brain uptake of [^3H]-Taxol, a specific substrate of P-gp, was measured. [^3H]-Taxol was perfused into the brain through the right jugular vein for 5 minutes in the presence or absence of pepCav or pepPgp at a concentration of 20 μg/ml. Radioactivity of [^3H]-Taxol was analyzed in the total brain, the capillary and the parenchyma.

MDCK-MDR1 cells = assay: Cell migration of MDCK-MDR1 cells, Transwell filters; format: cell-based, canine; settings: 20 μg/ml, Transwell 8 μm precoated with 0.15% gelatin, 10% serum as chemoattractant (FIGS. 3A, 3B)
Protocol: The effect of both compounds on cell migration, was determined by the migration of MDCK-MDR1 cells using Transwell filters (Costar; 8 μm pore size) precoated with 0.15% gelatin. Briefly, 1×10^5 cells were resuspended in 100 μl of serum-free medium with or without compounds (20 μg/ml). The lower chamber of the Transwell contained 10% serum used as chemoattractant. Cell migration was determined using a Nikon TMS-F microscope and Northern Eclipse Software. As observed in FIGS. 3A and 3B, pepPgp and pepCav inhibited cells migration of MDCK-MDR1 by 30% and 80%, respectively, as compared to the control.

[2] = test system: human umbilical vein endothelial cells (HUVEC); assay: HUVEC tube formation on Matrigel (angiogenesis in vitro); format: cell-based; settings: 40 μg/ml, 18 hours (FIG. 4A)
Protocol: The effect of these compounds on angiogenesis was evaluated in vitro using human umbilical vein endothelial cells (HUVEC) tube formation on Matrigel. Following transfections, cells were trypsinized and 2.5×10^4 cells were seeded on Matrigel. After cellular adhesion, the medium was removed and 100 μl fresh medium was added with or without 40 μg/ml of either pepCav or pepPgp. Tube formation was evaluated after 18 hours. After incubation, tubular structures were visualized at 60× magnification using a Nikon TMS-F microscope and Northern Eclipse Software.

angiogenesis = assay: Matrigel plug assay (angiogenesis in vivo), hemoglobin content; settings: Matrigel with heparin and bFGF under the skin of mice, plug removed after one week; 100 μg/ml in the method, 40 μg/ml in the result sentence (FIG. 4B)
Protocol: The effect of these compounds on angiogenesis was evaluated in vivo using the Matrigel plug assay. Briefly, Matrigel containing heparin and bFGF was injected under the skin of mice in the presence or absence of 100 μg/ml pepCav and pepPgp. The Matrigel plug was removed after one week. Hemoglobin content in the Matrigel plugs, which corresponds to the vessels formed, was measured.

P-gp [3] = biological target: P-gp (Homo sapiens, UniProt P08183)
Chain of P-gp (Homo sapiens, UniProt P08183) (P08183 whole entry): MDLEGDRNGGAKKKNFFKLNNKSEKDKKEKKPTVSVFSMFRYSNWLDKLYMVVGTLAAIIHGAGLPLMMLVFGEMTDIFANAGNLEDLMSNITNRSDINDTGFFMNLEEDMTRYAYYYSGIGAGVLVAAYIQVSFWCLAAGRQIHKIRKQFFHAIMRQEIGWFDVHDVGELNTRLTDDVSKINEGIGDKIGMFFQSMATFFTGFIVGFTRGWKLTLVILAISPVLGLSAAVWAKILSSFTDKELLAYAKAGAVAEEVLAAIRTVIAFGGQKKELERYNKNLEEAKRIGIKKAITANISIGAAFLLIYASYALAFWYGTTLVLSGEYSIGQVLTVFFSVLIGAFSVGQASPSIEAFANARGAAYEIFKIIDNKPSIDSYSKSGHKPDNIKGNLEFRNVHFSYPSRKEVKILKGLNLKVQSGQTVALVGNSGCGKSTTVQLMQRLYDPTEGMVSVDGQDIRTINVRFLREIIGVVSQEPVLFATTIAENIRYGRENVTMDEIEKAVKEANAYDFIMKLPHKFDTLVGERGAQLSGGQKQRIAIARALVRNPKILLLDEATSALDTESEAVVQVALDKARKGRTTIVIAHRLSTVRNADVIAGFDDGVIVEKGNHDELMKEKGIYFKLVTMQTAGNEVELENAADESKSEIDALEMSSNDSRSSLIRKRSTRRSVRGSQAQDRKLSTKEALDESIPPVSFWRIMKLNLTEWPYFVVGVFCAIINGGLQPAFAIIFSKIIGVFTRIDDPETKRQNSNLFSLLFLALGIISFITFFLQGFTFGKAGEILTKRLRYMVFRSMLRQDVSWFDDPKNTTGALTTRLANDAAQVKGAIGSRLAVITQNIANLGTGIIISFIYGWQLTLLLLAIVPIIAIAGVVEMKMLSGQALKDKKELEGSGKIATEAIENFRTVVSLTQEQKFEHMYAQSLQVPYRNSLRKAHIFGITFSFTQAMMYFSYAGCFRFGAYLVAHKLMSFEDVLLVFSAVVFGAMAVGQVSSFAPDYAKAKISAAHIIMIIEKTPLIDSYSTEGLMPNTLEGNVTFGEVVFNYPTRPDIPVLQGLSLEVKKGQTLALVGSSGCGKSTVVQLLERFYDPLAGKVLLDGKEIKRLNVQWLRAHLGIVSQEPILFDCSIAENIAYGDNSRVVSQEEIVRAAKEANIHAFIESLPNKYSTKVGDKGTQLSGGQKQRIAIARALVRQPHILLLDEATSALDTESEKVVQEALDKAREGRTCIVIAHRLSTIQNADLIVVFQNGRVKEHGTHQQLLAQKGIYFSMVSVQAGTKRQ

Row | Sequence | reduction of [3H]-Taxol in the capillaries and in the parenchyma relative to total brain (P-gp [1]) | reduction of Taxol passage in the total brain vs control mice (P-gp [1]) | inhibition of cell migration of MDCK-MDR1 vs control (MDCK-MDR1 cells) | reduction of capillary-like structure formation [2] | reduction of hemoglobin content in Matrigel plug vs control (bFGF alone) (angiogenesis) | [3H]-vinblastine accumulation with increasing concentrations of compound (P-gp [3]) | accumulation of [3H]-vinblastine as a function of time (P-gp [3]; MDCK-MDR1 cells, 20 μg/ml peptide, different times following treatment (FIG. 1A)) | [3H]-vinblastine accumulation with increasing concentrations of compound (P-gp [3]; MDCK-MDR1 cells, increasing concentrations (FIG. 1B))
1 | VFSMFRYSNWLDK [pepPgp] | similar | 30% | 30% | 40% | 40% | reduced |  | 
2 | DGIWKASFTTFTVTKYWFYR [pepCav] | similar | 50% | 80% | 75% | 25% |  | decreased as a function of time | reduced
